Test results as given in article PMC6272992, “Synthesis and Cytotoxic Effect of Some Novel 1,2-Dihydropyridin-3-carbonitrile and Nicotinonitrile Derivatives” (Molecules, 2015).
In brackets after ≈: the same amount, converted by molar mass.

Assays:
[1] = tested on: MCF-7 (breast adenocarcinoma); test: SRB cancer cell growth assay, MCF-7; type: cell-based, human; parameters: key to activity class MCF-7: highly active; b: moderately active; weakly active; conditions: for IC50: Homo sapiens, MCF7, MCF-7, 48 h exposure, SRB, read-out: IC50 (μg/mL) MCF-7
Procedure: (§1) The in vitro cytotoxic activity the newly synthesized compounds against human breast cell line (MCF7), non-small cell lung cancer NCI-H460, CNS cancer SF-268 and WI 38 (normal fibroblast cells) were evaluated using doxorubicin as the reference drug, according to the method reported by Skehan et al..
(§2) The newly synthesized compounds were evaluated in vitro against three human cancer cell lines; which are MCF-7 (breast adenocarcinoma), NCI-H460 (non-small cell lung cancer) and SF-268 (CNS cancer), and WI 38 (normal fibroblast cells) were used in this study. MCF-7 was obtained from the European Collection of Cell Cultures (ECACC, Salisbury, UK) but NCI-H460, SF-268 and WI 38 were kindly provided by the National Cancer Institute (NCI, Cairo, Egypt). They grow as monolayers routinely maintained in RPMI-1640 medium supplemented with 5% heat inactivated fetal bovine serum (FBS), 2 mM glutamine and antibiotics (penicillin 100 U/mL, streptomycin 100 µg/mL), at 37 °C in a humidified atmosphere containing 5% CO2. Exponentially growing cells were obtained by plating 1.5 × 10^5 cells/mL for MCF-7 and SF-268, and 0.75 × 10^4 cells/mL for NCI-H460 followed by 24 h of incubation. The effect of the vehicle solvent (DMSO) on the growth of these cell lines was evaluated in all experiments by exposing untreated control cells to the maximum concentration (0.5%) of DMSO used in each assay.
(§3) The effect of compounds on the in vitro growth of human tumor cell lines were evaluated according to the procedure adopted by the National Cancer Institute (NCI, […], USA) in the “In vitro Anticancer Drug Discovery Screen” that uses the protein-binding dye sulforhodamine B (SRB) to assess cell growth. In the assay protocol, all cells were incubated at 37 °C under humidified atmosphere containing 5% CO2. Briefly, exponentially cells growing in 96-well plates were then exposed for 48 h to five serial concentrations of each compound, starting from a maximum concentration of 150 μg/mL. Following this exposure period, adherent cells were fixed, washed and stained. The bound stain was solubilized and the absorbance was measured at 492 nm in a Power Wave XS plate reader (Bio-Tek Instruments Inc., Winston, NC, USA). For each test compound and cell line, a dose response curve was obtained and the inhibitory concentration of 50% (IC50), corresponding to the concentration of the compounds that inhibited 50% of the net cell growth was calculated as described elsewhere. Doxorubicin was used as a positive control and tested in the same manner.

[2] = tested on: WI 38 (normal fibroblast cells); test: SRB cell growth assay, normal cells WI 38; type: cell-based, human; conditions: 48 h exposure, non-cytotoxic = IC50 > 100 μg/mL; for IC50: Homo sapiens
Procedure: as §1, §2, §3

[3] = tested on: NCI-H460 (non-small cell lung cancer); test: SRB cancer cell growth assay, NCI-H460; type: cell-based, human; parameters: key to activity class NCI-H460: highly active; b: moderately active; weakly active; conditions: for IC50: Homo sapiens, NCI-H460, 48 h exposure, SRB, read-out: IC50 (μg/mL) NCI-H460
Procedure: as §1, §2, §3

[4] = tested on: SF-268 (CNS cancer); test: SRB cancer cell growth assay, SF-268; type: cell-based, human; parameters: key to activity class SF-268: highly active; b: moderately active; weakly active; conditions: for IC50: Homo sapiens, SF-268, 48 h exposure, SRB, read-out: IC50 (μg/mL) SF-268
Procedure: as §1, §2, §3

Row | Structure (SMILES) | IC50 [1] [µg/mL] | melting point [°C] | IC50 [3] [µg/mL] | IC50 [4] [µg/mL] | activity class MCF-7 [1] | IC50 [2] [µg/mL] | activity class NCI-H460 [3] | activity class SF-268 [4] | IC50 (μg/mL) WI 38 [2]
1 | Nc1nnc2[nH]c(-c3ccc(Cl)cc3Cl)cc(-c3ccc(F)cc3)c1-2 [Compound 4, 6-(2,4-Dichlorophenyl)-4-(4-fluorophenyl)-7H-pyrazolo[3,4-b]pyridin-3-amine] | 67 ± 6.23 (≈ 180 µM) | 309 to 311 | 56.8 ± 8.2 (≈ 152 µM) | 69 ± 9.15 (≈ 185 µM) | c | 18.6 ± 1.21 (≈ 49.9 µM) | c | c | –
2 | N#Cc1c(N)c2c(-c3ccc(F)cc3)cc(-c3ccc(Cl)cc3Cl)nc2[nH]c1=O [Compound 7, 4-Amino-7-(2,4-dichlorophenyl)-5-(4-fluorophenyl)-2-oxo-1,2-dihydro-1,8-naphthyridine-3-carbonitrile] | 36.2 ± 2.14 (≈ 85.2 µM) | 188 to 189 | 74 ± 3.65 (≈ 174 µM) | 62.1 ± 3.61 (≈ 146 µM) | c | 23 ± 8.2 (≈ 54 µM) | c | c | –
3 | CCOC(=O)COc1nc(-c2ccc(Cl)cc2Cl)cc(-c2ccc(F)cc2)c1C#N [Compound 8, Ethyl 2-[3-cyano-6-(2,4-dichlorophenyl)-4-(4-fluorophenyl)pyridin-2-yloxy]acetate] | 0.02 ± 0.002 (≈ 0.0449 µM) | 119 to 121 | 0.01 ± 0.002 (≈ 0.0225 µM) | 0.02 ± 0.045 (≈ 0.0449 µM) | a | > 100 | a | a | non-cytotoxic
4 | N#Cc1c(-c2ccc(F)cc2)cc(-c2ccc(Cl)cc2Cl)nc1OCC(=O)NN [Compound 9, 2-[3-Cyano-6-(2,4-dichlorophenyl)-4-(4-fluorophenyl)pyridin-2-yloxy]acetohydrazide] | 2.41 ± 1.24 (≈ 5.59 µM) | 197 to 199 | 2.3 ± 2.86 (≈ 5.33 µM) | 0.46 ± 0.06 (≈ 1.07 µM) | a | 62.2 ± 2.02 (≈ 144 µM) | a | a | –
5 | CC1CCCCN1c1nc(-c2ccc(Cl)cc2Cl)cc(-c2ccc(F)cc2)c1C#N (centres unmarked) [Compound 15a, 6-(2,4-Dichlorophenyl)-4-(4-fluorophenyl)-2-(2-methylpiperidin-1-yl)nicotinonitrile] | 37.1 ± 7.34 (≈ 84.2 µM) | 98 to 100 | 16.4 ± 2.32 (≈ 37.2 µM) | 38.9 ± 2.63 (≈ 88.4 µM) | c | 30.6 ± 6.21 (≈ 69.5 µM) | b | c | –
6 | N#Cc1c(-c2ccc(F)cc2)cc(-c2ccc(Cl)cc2Cl)nc1NN=C1C(=O)Nc2ccccc21 [Compound 20, 6-(2,4-Dichlorophenyl)-4-(4-fluorophenyl)-2-[2-(2-oxoindolin-3-ylidene)hydrazinyl]nicotinonitrile] | 0.66 ± 0.21 (≈ 1.31 µM) | 268 to 269 | 0.9 ± 0.12 (≈ 1.79 µM) | 2.34 ± 0.51 (≈ 4.66 µM) | a | 72.5 ± 2.4 (≈ 144 µM) | a | a | –
7 | COc1cccc2c1C(=O)c1c(O)c3c(c(O)c1C2=O)C[C@@](O)(C(=O)CO)C[C@@H]3O[C@H]1C[C@H](N)[C@H](O)[C@H](C)O1 [Doxorubicin, reference compound] | 0.04 ± 0.008 (≈ 0.0736 µM) | – | 0.09 ± 0.008 (≈ 0.166 µM) | 0.09 ± 0.007 (≈ 0.166 µM) | – | – | – | – | non-cytotoxic

More lines, main results first:

Row | IC50 [1] [µg/mL] | melting point [°C] | IC50 [3] [µg/mL] | IC50 [4] [µg/mL] | Structure (SMILES) | activity class MCF-7 [1] | IC50 [2] [µg/mL] | activity class NCI-H460 [3] | activity class SF-268 [4] | IC50 (μg/mL) WI 38 [2]
8 | 30.6 ± 1.1 (≈ 56.9 µM) | 219 to 221 | 30.7 ± 1.64 (≈ 57.1 µM) | 28.2 ± 8.83 (≈ 52.4 µM) | N#Cc1c(-c2ccc(F)cc2)cc(-c2ccc(Cl)cc2Cl)nc1OCC(=O)NN=Cc1ccc(F)cc1 [Compound 10, 2-[3-Cyano-6-(2,4-dichlorophenyl)-4-(4-fluorophenyl)pyridin-2-yloxy]-N′-(4-fluorobenzylidene)-acetohydrazide] | b | 19.8 ± 2.68 (≈ 36.8 µM) | b | b | –
9 | 16.3 ± 1.87 (≈ 33 µM) | 149 to 151 | 18.9 ± 1.03 (≈ 38.4 µM) | 23.2 ± 4.12 (≈ 47.2 µM) | N#Cc1c(-c2ccc(F)cc2)cc(-c2ccc(Cl)cc2Cl)nc1NCc1ccc2c(c1)OCO2 [Compound 13, 2-(Benzo[d][1,3]dioxol-5-ylmethylamino)-6-(2,4-dichlorophenyl)-4-(4-fluorophenyl)nicotinonitrile] | b | 20.4 ± 4.99 (≈ 41.4 µM) | b | b | –
10 | 0.01 ± 0.002 (≈ 0.0246 µM) | 99 to 101 | 0.02 ± 0.001 (≈ 0.0491 µM) | 0.01 ± 0.003 (≈ 0.0246 µM) | N#Cc1c(-c2ccc(F)cc2)cc(-c2ccc(Cl)cc2Cl)nc1C(C#N)C#N [Compound 16, 2-[3-Cyano-6-(2,4-dichlorophenyl)-4-(4-fluorophenyl)pyridin-2-yl]malononitrile] | a | > 100 | a | a | non-cytotoxic
11 | 0.61 ± 0.082 (≈ 1.63 µM) | 223 to 224 | 0.86 ± 0.02 (≈ 2.3 µM) | 2.19 ± 0.83 (≈ 5.87 µM) | N#Cc1c(-c2ccc(F)cc2)cc(-c2ccc(Cl)cc2Cl)nc1NN [Compound 17, 6-(2,4-Dichlorophenyl)-4-(4-fluorophenyl)-2-hydrazinylnicotinonitrile] | a | 64.1 ± 1.22 (≈ 172 µM) | a | a | –
12 | 20.2 ± 2.26 (≈ 46 µM) | 246 to 248 | 0.01 ± 0.003 (≈ 0.0228 µM) | 20.2 ± 3.26 (≈ 46 µM) | CC1=NN(c2nc(-c3ccc(Cl)cc3Cl)cc(-c3ccc(F)cc3)c2C#N)C(=O)C1 [Compound 18, 6-(2,4-Dichlorophenyl)-4-(4-fluorophenyl)-2-(3-methyl-5-oxo-4,5-dihydro-1H-pyrazol-1-yl) nicotinonitrile] | b | 29.8 ± 4.88 (≈ 67.9 µM) | a | b | –
13 | 75.2 ± 13.9 (≈ 172 µM) | 287 to 289 | 62.3 ± 10.3 (≈ 142 µM) | 10.4 ± 4.19 (≈ 23.8 µM) | Cc1cc(C)n(-c2nc(-c3ccc(Cl)cc3Cl)cc(-c3ccc(F)cc3)c2C#N)n1 [Compound 19, 6-(2,4-Dichlorophenyl)-2-(3,5-dimethyl-1H-pyrazol-1-yl)-4-(4-fluorophenyl)nicotinonitrile] | c | 50.2 ± 10.2 (≈ 115 µM) | c | a | –
14 | 66 ± 8.25 (≈ 127 µM) | 278 to 280 | 45 ± 10.5 (≈ 86.2 µM) | 32.5 ± 6.04 (≈ 62.2 µM) | COc1ccc(C=NNc2nc(-c3ccc(Cl)cc3Cl)cc(-c3ccc(F)cc3)c2C#N)cc1OC [Compound 21d, 6-(2,4-Dichlorophenyl)-2-[2-(3,4-dimethoxybenzylidene)hydrazinyl]-4-(4-fluorophenyl) nicotinonitrile] | c | – | c | b | non-cytotoxic
